Test results reported in ChEMBL document CHEMBL3098048, “TMEDA-derived biscationic amphiphiles: An economical preparation of potent antibacterial agents” (2014).
One block for each compound: values may come before it.

Key:
Assay type in all cases: functional
Enterococcus faecalis = assay: Antibacterial activity against Enterococcus faecalis OG1RF assessed as growth inhibition after 72 hrs by broth microdilution method
Escherichia coli = assay: Antibacterial activity against Escherichia coli MC4100 assessed as growth inhibition after 72 hrs by broth microdilution method; settings: MC4100, 72 h
Pseudomonas aeruginosa = assay: Antibacterial activity against wild-type Pseudomonas aeruginosa PAO1 assessed as growth inhibition after 72 hrs by broth microdilution method; settings: PAO1, 72 h
Staphylococcus aureus = assay: Antibacterial activity against Staphylococcus aureus SH1000 assessed as growth inhibition after 72 hrs by broth microdilution method; settings: SH1000, 72 h

Structure (SMILES): CCCCCCCCCCCCCCCC[N+](C)(C)CC[N+](C)(C)CCCCCCCCCC
MIC (Enterococcus faecalis): 4 µM
MIC (Escherichia coli): 8 µM
MIC (Pseudomonas aeruginosa): 32 µM
MIC (Staphylococcus aureus): 4 µM

Structure (SMILES): CCCCCCCCCCCCCCCCCC[N+](C)(C)CC[N+](C)(C)CCCCCCCCCCCC
MIC (Enterococcus faecalis): 4 µM
MIC (Escherichia coli): 16 µM
MIC (Pseudomonas aeruginosa): 32 µM
MIC (Staphylococcus aureus): 4 µM

Structure (SMILES): CCCCCCCCCCCCCCCCCC[N+](C)(C)CC[N+](C)(C)CCCCCCCCCC
MIC (Enterococcus faecalis): 2 µM
MIC (Escherichia coli): 16 µM
MIC (Pseudomonas aeruginosa): 32 µM
MIC (Staphylococcus aureus): 4 µM

Structure (SMILES): CCCCCCCCCCCCCCCCCC[N+](C)(C)CC[N+](C)(C)CCCCCCCCCCCCCCCC
MIC (Enterococcus faecalis): 32 µM
MIC (Escherichia coli): 32 µM
MIC (Pseudomonas aeruginosa): 63 µM
MIC (Staphylococcus aureus): 16 µM

Structure (SMILES): CCCCCCCCCCCCCCCC[N+](C)(C)CC[N+](C)(C)CCCCCCCCCCCC
MIC (Enterococcus faecalis): 4 µM
MIC (Escherichia coli): 8 µM
MIC (Pseudomonas aeruginosa): 32 µM
MIC (Staphylococcus aureus): 8 µM

Structure (SMILES): CCCCCCCCCCCCCCCCCCCC[N+](C)(C)CC[N+](C)(C)CCCCCCCCCC
MIC (Enterococcus faecalis): 16 µM
MIC (Escherichia coli): 16 µM
MIC (Pseudomonas aeruginosa): 16 µM
MIC (Staphylococcus aureus): 4 µM

Structure (SMILES): CCCCCCCCCCCCCC[N+](C)(C)CC[N+](C)(C)CCCCCCCCCCCCCC
MIC (Enterococcus faecalis): 2 µM
MIC (Escherichia coli): 4 µM
MIC (Pseudomonas aeruginosa): 32 µM
MIC (Staphylococcus aureus): 4 µM

Structure (SMILES): CCCCCCCC[N+](C)(C)CCN(C)C
MIC (Enterococcus faecalis): > 1000 µM
MIC (Escherichia coli): > 1000 µM
MIC (Pseudomonas aeruginosa): > 1000 µM
MIC (Staphylococcus aureus): > 1000 µM

Structure (SMILES): CCCCCCCCCCC[N+](C)(C)CC[N+](C)(C)CCCCCCCCCC
MIC (Enterococcus faecalis): 4 µM
MIC (Escherichia coli): 4 µM
MIC (Pseudomonas aeruginosa): 4 µM
MIC (Staphylococcus aureus): 1 µM

Structure (SMILES): CCCCCCCCCCCCCCCCCC[N+](C)(C)CC[N+](C)(C)CCCCCCCCCCCCCC
MIC (Enterococcus faecalis): 16 µM
MIC (Escherichia coli): 16 µM
MIC (Pseudomonas aeruginosa): 63 µM
MIC (Staphylococcus aureus): 8 µM

Structure (SMILES): CCCCCCCCCCCCCCCCCC[N+](C)(C)CC[N+](C)(C)CCCCCCCCCCCCCCCCCC
MIC (Enterococcus faecalis): 63 µM
MIC (Escherichia coli): 250 µM
MIC (Pseudomonas aeruginosa): 500 µM
MIC (Staphylococcus aureus): 32 µM

Structure (SMILES): CCCCCCCCCCCCCCCC[N+](C)(C)CC[N+](C)(C)CCCCCCCCCCCCCCCC
MIC (Enterococcus faecalis): 8 µM
MIC (Escherichia coli): 32 µM
MIC (Pseudomonas aeruginosa): 63 µM
MIC (Staphylococcus aureus): 8 µM

Structure (SMILES): CCCCCCCC[N+](C)(C)CC[N+](C)(C)CCCCCCCC
MIC (Enterococcus faecalis): 500 µM
MIC (Escherichia coli): 250 µM
MIC (Pseudomonas aeruginosa): 500 µM
MIC (Staphylococcus aureus): 32 µM

Structure (SMILES): CCCCCCCCCCCCCC[N+](C)(C)CC[N+](C)(C)CCCCCCCCCCCC
MIC (Enterococcus faecalis): 2 µM
MIC (Escherichia coli): 2 µM
MIC (Pseudomonas aeruginosa): 8 µM
MIC (Staphylococcus aureus): 1 µM

Structure (SMILES): CCCCCCCCCCCCCCCCCCCC[N+](C)(C)CC[N+](C)(C)CCCCCCCCCCCCCC
MIC (Enterococcus faecalis): 16 µM
MIC (Escherichia coli): 16 µM
MIC (Pseudomonas aeruginosa): 63 µM
MIC (Staphylococcus aureus): 8 µM

Structure (SMILES): CCCCCCCCCCCCCCCC[N+](C)(C)CC[N+](C)(C)CCCCCCCCCCCCCC
MIC (Enterococcus faecalis): 2 µM
MIC (Escherichia coli): 16 µM
MIC (Pseudomonas aeruginosa): 63 µM
MIC (Staphylococcus aureus): 8 µM

Structure (SMILES): CCCCCCCCCCCCCCCCCCCC[N+](C)(C)CC[N+](C)(C)CCCCCCCC
MIC (Enterococcus faecalis): 4 µM
MIC (Escherichia coli): 16 µM
MIC (Pseudomonas aeruginosa): 32 µM
MIC (Staphylococcus aureus): 4 µM

Structure (SMILES): CCCCCCCCCCCCCCCCCCCC[N+](C)(C)CC[N+](C)(C)CCCCCCCCCCCCCCCC
MIC (Enterococcus faecalis): 32 µM
MIC (Escherichia coli): 63 µM
MIC (Pseudomonas aeruginosa): 63 µM
MIC (Staphylococcus aureus): 16 µM

Structure (SMILES): CCCCCCCCCCCCCCCCCCCC[N+](C)(C)CC[N+](C)(C)CCCCCCCCCCCC
MIC (Enterococcus faecalis): 4 µM
MIC (Escherichia coli): 32 µM
MIC (Pseudomonas aeruginosa): 63 µM
MIC (Staphylococcus aureus): 8 µM

The next lines start with the values.

MIC (Enterococcus faecalis): 2 µM
MIC (Escherichia coli): 2 µM
MIC (Pseudomonas aeruginosa): 4 µM
MIC (Staphylococcus aureus): 2 µM
Structure (SMILES): CCCCCCCCCCCCCCCC[N+](C)(C)CC[N+](C)(C)CCCCCCCC

MIC (Enterococcus faecalis): 4 µM
MIC (Escherichia coli): 4 µM
MIC (Pseudomonas aeruginosa): 4 µM
MIC (Staphylococcus aureus): 1 µM
Structure (SMILES): CCCCCCCCCCCC[N+](C)(C)CC[N+](C)(C)CCCCCCCC

MIC (Enterococcus faecalis): 1 µM
MIC (Escherichia coli): 2 µM
MIC (Pseudomonas aeruginosa): 4 µM
MIC (Staphylococcus aureus): 4 µM
Structure (SMILES): CCCCCCCCCCCCCC[N+](C)(C)CC[N+](C)(C)CCCCCCCCCC

MIC (Enterococcus faecalis): 8 µM
MIC (Escherichia coli): 16 µM
MIC (Pseudomonas aeruginosa): 8 µM
MIC (Staphylococcus aureus): 2 µM
Structure (SMILES): CCCCCCCCCC[N+](C)(C)CC[N+](C)(C)CCCCCCCCCC

MIC (Enterococcus faecalis): 63 µM
MIC (Escherichia coli): 63 µM
MIC (Pseudomonas aeruginosa): 125 µM
MIC (Staphylococcus aureus): 8 µM
Structure (SMILES): CCCCCCCCCC[N+](C)(C)CC[N+](C)(C)CCCCCCCC

MIC (Enterococcus faecalis): 2 µM
MIC (Escherichia coli): 2 µM
MIC (Pseudomonas aeruginosa): 4 µM
MIC (Staphylococcus aureus): 1 µM
Structure (SMILES): CCCCCCCCCCCCCC[N+](C)(C)CC[N+](C)(C)CCCCCCCC

MIC (Enterococcus faecalis): 1 µM
MIC (Escherichia coli): 2 µM
MIC (Pseudomonas aeruginosa): 4 µM
MIC (Staphylococcus aureus): 1 µM
Structure (SMILES): CCCCCCCCCCCC[N+](C)(C)CC[N+](C)(C)CCCCCCCCCCCC

MIC (Enterococcus faecalis): 2 µM
MIC (Escherichia coli): 2 µM
MIC (Pseudomonas aeruginosa): 2 µM
MIC (Staphylococcus aureus): 1 µM
Structure (SMILES): CCCCCCCCCCCC[N+](C)(C)CC[N+](C)(C)CCCCCCCCCC

MIC (Enterococcus faecalis): 250 µM
MIC (Escherichia coli): 250 µM
MIC (Pseudomonas aeruginosa): 250 µM
MIC (Staphylococcus aureus): 63 µM
Structure (SMILES): CCCCCCCCCC[N+](C)(C)CCN(C)C

MIC (Enterococcus faecalis): 8 µM
MIC (Escherichia coli): 16 µM
MIC (Pseudomonas aeruginosa): 125 µM
MIC (Staphylococcus aureus): 2 µM
Structure (SMILES): CCCCCCCCCCCCCC[N+](C)(C)CCN(C)C

MIC (Enterococcus faecalis): 4 µM
MIC (Escherichia coli): 63 µM
MIC (Pseudomonas aeruginosa): 125 µM
MIC (Staphylococcus aureus): 4 µM
Structure (SMILES): CCCCCCCCCCCCCCCCCCCC[N+](C)(C)CCN(C)C

MIC (Enterococcus faecalis): 4 µM
MIC (Escherichia coli): 63 µM
MIC (Pseudomonas aeruginosa): 63 µM
MIC (Staphylococcus aureus): 2 µM
Structure (SMILES): CCCCCCCCCCCCCCCCCC[N+](C)(C)CCN(C)C

MIC (Enterococcus faecalis): 1 µM
MIC (Escherichia coli): 2 µM
MIC (Pseudomonas aeruginosa): 2 µM
MIC (Staphylococcus aureus): 1 µM
Structure (SMILES): CCCCCCCCCCCCC[N+](C)(C)CC[N+](C)(C)CCCCCCCCCC

MIC (Enterococcus faecalis): 63 µM
MIC (Escherichia coli): 63 µM
MIC (Pseudomonas aeruginosa): 250 µM
MIC (Staphylococcus aureus): 32 µM
Structure (SMILES): CCCCCCCCCCCC[N+](C)(C)CCN(C)C

MIC (Enterococcus faecalis): 16 µM
MIC (Escherichia coli): 16 µM
MIC (Pseudomonas aeruginosa): 16 µM
MIC (Staphylococcus aureus): 1 µM
Structure (SMILES): CCCCCCCCCCCCCCCC[N+](C)(C)CCN(C)C

MIC (Enterococcus faecalis): 2 µM
MIC (Escherichia coli): 8 µM
MIC (Pseudomonas aeruginosa): 32 µM
MIC (Staphylococcus aureus): 2 µM
Structure (SMILES): CCCCCCCCCCCCCCCCCC[N+](C)(C)CC[N+](C)(C)CCCCCCCC
